For assay [1], the target named is LSD1 (Homo sapiens (Human), UniProt O60341). In words: In vitro enzyme inhibition assay - LSD1 (HTRF). Type of assay: biochemical.
In assay [2] the test system is NCI-H526 cells. Put plainly: In vitro cell inhibition assay - NCI-H526 cell proliferation (CellTiter-Glo). The format is cell-based. The conditions noted are these: Homo sapiens, NCI-H526, 120 h, H526 small cell lung cancer cell proliferation, 5 days. As to the method: 6. In Vitro Cell Inhibition Assay—NCI-H526 Cell Proliferation
The inhibitory effect of the compounds on cell proliferation was assessed by detecting the number of viable cells using CellTiter-Glo® reagent. NCI-H526 cells in the logarithmic growth phase were collected and inoculated into transparent bottom 96-well plates at a density 1×10^3 cells per well with 100 μL of medium, and incubated at 37° C., 5% CO2 overnight. The compounds were sequentially diluted in a 5-fold concentration gradient with DMSO to obtain 8 different concentrations. These were then diluted with RPMI-640 (containing 10% FBS) cell culture medium to obtain the compound working solution (2×), which was added to the cell supernatant at 100 μL per well. The incubation continued for 5 days at 37° C., 5% CO2. The plate was then removed and equilibrated at room temperature (25° C.) along with the CellTiter-Glo® mixing reagent for 10-30 minutes; 80 μL of the culture medium was carefully aspirated from each well, and 80 μL of CellTiter-Glo® reagent was added. The cells were thoroughly mixed with the CellTiter-Glo® mixing reagent using a microplate shaker for 2 min. and then incubated at room temperature for 10 min. The 96-well plate was subsequently placed on a multifunctional microplate reader to record the Luminescence values (RLU).
The inhibition rate was calculated using the following formula: […]
Note: ‘Negative’ refers to the group without inhibitors; ‘Blank’ refers to the group without cells.
The IC50 value was determined by fitting the inhibition rate by GraphPad Prism software.
For orientation: In ATP-based viability assays light output follows the ATP content of the culture.

Assay [3] concerns NCI-H69 cells. In words: In vitro cell inhibition assay - NCI-H69 cell proliferation (CellTiter-Glo). Type of assay: cell-based. The conditions noted are these: Homo sapiens, NCI-H69, H69 small cell lung cancer cell proliferation. In outline:
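Cells seeded at 1×10^3 per well and incubated overnight at 37° C., 5% CO2, then treated with 8-point 5-fold compound dilutions in RPMI-640 with 20% FBS for 7 days. Viable cells measured by CellTiter-Glo luminescence; IC50 fitted from inhibition relative to no-inhibitor and no-cell controls.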

The test system of assay [4] is NCI-H1417 cells. Put plainly: In vitro cell inhibition assay - H1417 cell proliferation (CellTiter-Glo). Type of assay: cell-based. The conditions noted are these: Homo sapiens, NCI-H1417, H1417 small cell lung cancer cell proliferation. The procedure, abridged: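 Cells exposed to 8 compound concentrations (5-fold dilutions) in BEGM with 10% FBS for 7 days at 37° C., 5% CO2. Viable cells measured by CellTiter-Glo luminescence; inhibition versus no-inhibitor and no-cell controls, IC50 fitted.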

The target in assay [5] is pan-HDAC. Put plainly: In vitro enzyme inhibition assay - HDAC (HDAC-Glo I/II), pan-HDAC. Type of assay: biochemical. The procedure, abridged: (§1)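 Eight compound concentrations (5-fold steps from a 1 mM DMSO stock) tested against pan-HDAC, HDAC1 and HDAC8 with HDAC-Glo I/II reagents, luminescence read-out. Percent inhibition normalized to no-inhibitor and no-enzyme wells; IC50 derived by four-parameter logistic fit.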

The target of assay [6] is HDAC8 (Homo sapiens (Human), UniProt Q9BY41). In words: In vitro enzyme inhibition assay - HDAC (HDAC-Glo I/II), HDAC8. The settings on record: read-out: HDAC IC50 (nM) HDAC 8. Type of assay: biochemical. In outline: as §1
HDAC8, sequence (Q9BY41 whole entry): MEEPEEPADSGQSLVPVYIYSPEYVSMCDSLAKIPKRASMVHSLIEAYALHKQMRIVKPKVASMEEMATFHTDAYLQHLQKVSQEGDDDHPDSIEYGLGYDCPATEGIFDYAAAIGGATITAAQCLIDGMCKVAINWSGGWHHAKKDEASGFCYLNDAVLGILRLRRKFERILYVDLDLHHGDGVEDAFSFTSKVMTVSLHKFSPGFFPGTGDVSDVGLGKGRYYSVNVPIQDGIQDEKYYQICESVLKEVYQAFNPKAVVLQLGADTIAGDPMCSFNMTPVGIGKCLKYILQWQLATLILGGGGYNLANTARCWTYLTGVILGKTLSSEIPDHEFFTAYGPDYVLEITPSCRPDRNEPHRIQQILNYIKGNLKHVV

The values that follow come from US20250304549A1, “HYDROXYAMIDE DERIVATIVE AND USE THEREOF” (SICHUAN HUIYU PHARMACEUTICAL CO., LTD., priority 2022, published 2025).

Where a name gives a salt, the structure may show the parent alone.

Usually IC50 stands for the point on the concentration scale where inhibition reaches its midpoint. Take `COc1ccc(-c2cnc(N3CCC(NCc4ccc(CCC(=O)NO)cc4)CC3)c(C#N)c2-c2ccc(C#N)c(F)c2)cc1O` [Example 43, 3-(4-((1-(3-Cyano-4-(4-cyano-3-fluorophenyl)-5-(3-hydroxy-4-methoxyphenyl)pyridin-2-yl)piperidin-4-yl)amino)methyl)phenyl)-N-hydroxypropanamide formate]: the 50% inhibitory concentration (IC50) in assay [1] was 0.62 nM; in assay [2], 35.3 nM; in assay [3] it was 38.5 nM; in assay [4] it was 4.96 nM.
Take `COc1ccc(-c2cnc(N3CCN(CCc4ccc(/C=C/C(=O)NO)cc4)CC3)c(C#N)c2-c2ccc(C#N)c(F)c2)cc1O` [Example 49, (E)-3-(4-(2-(4-(3-Cyano-4-(4-cyano-3-fluorophenyl)-5-(3-hydroxy-4-methoxyphenyl)pyridin-2-yl)piperazin-1-yl)ethyl)phenyl)-N-hydroxyacrylamide hydrochloride]: the concentration for half-maximal inhibition (IC50) in assay [2] was found to be 333 nM; in assay [3] it was 232 nM; in assay [4], 80.1 nM.
For `CC(C)(O)COc1ccc(-c2cnc(N3CCC(NCc4ccc(/C=C/C(=O)NO)nc4)CC3)c(CC#N)c2-c2ccc(C#N)c(F)c2)cc1O` [Example 221, (E)-3-(5-(((1-(4-(4-Cyano-3-fluorophenyl)-3-(cyanomethyl)-5-(3-hydroxy-4-(2-hydroxy-2-methylpropoxy)phenyl)pyridin-2-yl)piperidin-4-yl)amino)methyl)pyridin-2-yl)-N-hydroxyacrylamide formate], the IC50 was 17.1 nM in assay [1]; 29 nM in assay [2]; 19.3 nM in assay [3]; 2.2 nM in assay [5]; 16.8 nM in assay [4].
Taken in the same sequence, the figures for `CC(C)(O)COc1ccc(-c2cnc(N3CCC(NC(C)(C)c4ccc(/C=C/C(=O)NO)cc4)CC3)c(C#N)c2-c2ccc(C#N)c(F)c2)cc1O` [Example 223, (E)-3-(4-(2-((1-(3-Cyano-4-(4-cyano-3-fluorophenyl)-5-(3-hydroxy-4-(2-hydroxy-2-methylpropoxy)phenyl)pyridin-2-yl)piperidin-4-yl)amino)propan-2-yl)phenyl)-N-hydroxyacrylamide hydrochloride] were 1.01 nM, 16.8 nM, 4.56 nM, 4.37 nM and 3.23 nM.
In the case of `N#Cc1ccc(-c2c(-c3ccc(OCCc4ccc(/C=C/C(=O)NO)cc4)c(O)c3)cnc(N3CCC(N)CC3)c2C#N)cc1F` [Example 231, (E)-3-(4-(2-(4-(6-(4-Aminopiperidin-1-yl)-5-cyano-4-(4-cyano-3-fluorophenyl)pyridin-3-yl)-2-hydroxyphenoxy)ethyl)phenyl)-N-hydroxyacrylamide hydrochloride], the 50% inhibitory concentration (IC50) is 0.07 nM in assay [1]; 140 nM in assay [6]; 1140 nM in assay [3]; 82.4 nM in assay [5]; 1.31 nM in assay [4].
The corresponding values for `COc1ccc(-c2c(C#N)cc(N3CCC(NCc4cnc(/C=C/C(=O)NO)nc4)CC3)nc2-c2ccc(C#N)c(F)c2)cc1O` [Example 234, (E)-3-(5-(((1-(4-Cyano-6-(4-cyano-3-fluorophenyl)-5-(3-hydroxy-4-methoxyphenyl)pyridin-2-yl)piperidin-4-yl)amino)methyl)pyrimidin-2-yl)-N-hydroxyacrylamide formate] are 1.08 nM, 51.1 nM, 77.6 nM, 13.3 nM and 15 nM.
`COc1ccc(-c2cnc(N3CCC(NCc4ccc(/C=C/C(=O)NO)cc4)CC3)c(C#N)c2-c2cnc(C#N)c(F)c2)cc1O` [Example 249, (E)-3-(4-(((1-(3′,6-Dicyano-5-fluoro-5′-(3-hydroxy-4-methoxyphenyl)-[3,4′-bipyridin]-2′-yl)piperidin-4-yl)amino)methyl)phenyl)-N-hydroxyacrylamide formate]: the half-maximal inhibitory concentration (IC50) is 1.1 nM in assay [1]; 11.7 nM in assay [2]; 2.74 nM in assay [3]; 0.86 nM in assay [5]; 1.26 nM in assay [4].
Take `O=C(CCCCCCC(=O)Nc1ccccc1)NO` [SAHA, Vorinostat, reference compound]: the IC50 in assay [2] amounted to 397 nM.
